Results as given in the NIST ThermoML archive (doi:10.1021/je049671t).

Assay: xn = mol fraction of the nth substance listed
Settings: Liquid, Vibrating tube method

CC(C)C [2-methylpropane] + CCCC
Settings	mass density [kg/m3]
240 K, 468.1 kPa, x2 = 0.5	626.35
240 K, 481.6 kPa, x2 = 0.25	621.79
240 K, 499 kPa, x2 = 0.75	631.33
240 K, 989.5 kPa, x2 = 0.5	626.9
240 K, 999.5 kPa, x2 = 0.25	622.36
240 K, 1001 kPa, x2 = 0.75	631.85
240 K, 1472.5 kPa, x2 = 0.5	627.41
240 K, 1500.2 kPa, x2 = 0.75	632.38
240 K, 1503.1 kPa, x2 = 0.25	622.9
240 K, 1962.6 kPa, x2 = 0.5	627.92
240 K, 2001.8 kPa, x2 = 0.25	623.43
240 K, 2011.4 kPa, x2 = 0.75	632.88
240 K, 2468.8 kPa, x2 = 0.5	628.43
240 K, 2493.8 kPa, x2 = 0.25	623.95
240 K, 2505.1 kPa, x2 = 0.75	633.43
240 K, 2976.4 kPa, x2 = 0.5	628.95
240 K, 2987.3 kPa, x2 = 0.25	624.47
240 K, 3003.9 kPa, x2 = 0.75	633.91
240 K, 3446 kPa, x2 = 0.5	629.43
240 K, 3481.8 kPa, x2 = 0.25	624.99
240 K, 3507.2 kPa, x2 = 0.75	634.38
240 K, 3970.1 kPa, x2 = 0.25	625.5
240 K, 3982.7 kPa, x2 = 0.5	629.98
240 K, 4015.3 kPa, x2 = 0.75	634.92
240 K, 4467.2 kPa, x2 = 0.5	630.47
240 K, 4485.6 kPa, x2 = 0.25	626.03
240 K, 4509.6 kPa, x2 = 0.75	635.35
240 K, 4983.6 kPa, x2 = 0.5	630.99
240 K, 5011.3 kPa, x2 = 0.75	635.85
240 K, 5024.9 kPa, x2 = 0.25	626.58
240 K, 5486.4 kPa, x2 = 0.5	631.5
240 K, 5515.8 kPa, x2 = 0.75	636.31
240 K, 5519.2 kPa, x2 = 0.25	627.11
240 K, 5981.2 kPa, x2 = 0.5	631.99
240 K, 6023.5 kPa, x2 = 0.75	636.82
240 K, 6067.5 kPa, x2 = 0.25	627.64
240 K, 6486.1 kPa, x2 = 0.5	632.5
240 K, 6492.4 kPa, x2 = 0.75	637.29
240 K, 6517.4 kPa, x2 = 0.25	628.1
240 K, 6977 kPa, x2 = 0.25	628.56
240 K, 6981 kPa, x2 = 0.5	632.99
240 K, 6991.5 kPa, x2 = 0.75	637.75
260 K, 496.3 kPa, x2 = 0.75	610.36
260 K, 503.7 kPa, x2 = 0.25	600.66
260 K, 503.9 kPa, x2 = 0.5	605.31
260 K, 979.3 kPa, x2 = 0.25	601.29
260 K, 993.2 kPa, x2 = 0.75	610.92
260 K, 1011.2 kPa, x2 = 0.5	605.96
260 K, 1489.5 kPa, x2 = 0.75	611.52
260 K, 1490.8 kPa, x2 = 0.25	601.97
260 K, 1508.9 kPa, x2 = 0.5	606.59
260 K, 2002.5 kPa, x2 = 0.75	612.18
260 K, 2003.1 kPa, x2 = 0.25	602.64
260 K, 2010.9 kPa, x2 = 0.5	607.22
260 K, 2507.6 kPa, x2 = 0.5	607.84
260 K, 2510.1 kPa, x2 = 0.75	612.77
260 K, 2511.6 kPa, x2 = 0.25	603.29
260 K, 2993.6 kPa, x2 = 0.5	608.43
260 K, 2999.7 kPa, x2 = 0.25	603.92
260 K, 3016.5 kPa, x2 = 0.75	613.4
260 K, 3495.3 kPa, x2 = 0.75	613.93
260 K, 3505.2 kPa, x2 = 0.25	604.56
260 K, 3514 kPa, x2 = 0.5	609.08
260 K, 3991.1 kPa, x2 = 0.5	609.66
260 K, 4009.7 kPa, x2 = 0.75	614.5
260 K, 4014.1 kPa, x2 = 0.25	605.19
260 K, 4508.9 kPa, x2 = 0.5	610.27
260 K, 4519.2 kPa, x2 = 0.75	615.15
260 K, 4521 kPa, x2 = 0.25	605.82
260 K, 5018.2 kPa, x2 = 0.75	615.65
260 K, 5023.4 kPa, x2 = 0.25	606.44
260 K, 5026.4 kPa, x2 = 0.5	610.89
260 K, 5506.4 kPa, x2 = 0.25	607.02
260 K, 5512.2 kPa, x2 = 0.75	616.21
260 K, 5517.9 kPa, x2 = 0.5	611.47
260 K, 6004.4 kPa, x2 = 0.75	616.79
260 K, 6023 kPa, x2 = 0.5	612.08
260 K, 6028.5 kPa, x2 = 0.25	607.65
260 K, 6519.2 kPa, x2 = 0.25	608.25
260 K, 6526.2 kPa, x2 = 0.75	617.32
260 K, 6531.1 kPa, x2 = 0.5	612.67

240 K
Settings	mass density [kg/m3]
x2 = 0.25	621.33
x2 = 0.5	625.96
x2 = 0.75	630.89
